The source of these data is patent US7022681B2, “Partial and full agonists of A1 adenosine receptors” (CV Therapeutics, Inc., priority 2002, dated 2006).

SMILES strings stand for the structures.

Data set [1] deals with awake rats. The data set can be described thus: Heart rate in awake rats (telemetry). The data set is classed as in vivo, rat. Particulars: dose levels of 1 mg/kg, 2.5 mg/kg, and 5 mg/kg. As to the method:
Heart rate was measured from rats chronically instrumented with telemetry transmitters. For transmitter implantation, a midline laparotomy was performed on anesthetized rats and a transmitter for ECG recording was sutured to the abdominal wall. The two electrocardiographic leads were tunneled through the wall, passed subcutaneously (one to the left shoulder, the other to the right thigh), and secured in place with sutures. Heart rates of awake rats were measured using a Dataquest ART Gold System (Data Sciences International, St. Paul, Minn.). Cardiac electrical activity was recorded for 10-s periods and used to calculate heart rate in beats per minute. After recording of a baseline heart rate, either vehicle (0.9% DMSO in saline, 0.5 ml) or a compound of Formula I was injected into the intraperitoneal cavity of each rat, and heart rate was monitored at intervals for an additional 3 hours.
The effects of a compound of Formula I on heart rate and serum NEFA reduction concentration were determined in separate groups of rats to avoid the effects of animal handling and blood sampling on heart rate. Three days before an experiment, a catheter ([…] outer diameter) was implanted in the left common carotid artery of each rat using aseptic conditions and sterile technique. […] Serum NEFA concentration was determined using an enzymatic colorimetric assay kit (Wako Chemicals, Richmond, Va.).

Data set [2] concerns awake rats. The data set can be described thus: Antilipolytic properties: NEFA concentration in awake rats. Conditions: oral administration. The data set is classed as in vivo, rat. An excerpt: • Animals. Male Sprague-Dawley rats (380–420 g) were purchased from Simonsen Laboratories (Gilroy, Calif.). All animals received humane care according to the guidelines set forth in The Principles of Laboratory Animal Care formulated by the National Society for Medical Research and the Guide for the Care and Use of Laboratory Animals prepared by the Institute of Laboratory Animal Resources and published by the National Institute of Health (NIH Publication 86-23, revised 1996). • Isolation of Rat Epididymal Adipocytes. Adipocytes were isolated from the epididymal fat pads of rats as described previously (Rodbell, 1964). Briefly, rats were anesthetized using methoxyfluorane and killed by exsanguination. Epididymal fat tissue was removed and placed into a modified Krebs (KRH) solution containing NaCl (100 mM), KCl (4.7 mM), CaCl2 (2.5 mM), NaHCO3 (3.6 mM), MgSO4 (1.19 mM), KH2PO4 (1.18 mM), dextrose (5 mM), pyruvic acid (5 mM), ascorbic acid (1 mM), and HEPES (5 mM), pH 7.4. Visible blood vessels were dissected and excised, and the adipose tissue was minced. Minced tissue was digested with 25 ml of fresh KRH solution containing type I collagenase (1 mg/ml), fatty-acid free BSA [1% (wt/vol)] and nicotinic acid (2_M, to inhibit lipolysis) for 40 to 60 minutes at 37° C. with continuous gentle shaking. The cell suspension was filtered through a nylon-mesh (210_m) to remove undigested tissue fragments. The cell filtrate was washed three times using KRH solution containing 1% fatty acid-free BSA at 37° C. The final adipocyte suspension was either diluted in fresh KRH solution with 1% fatty acid-free BSA for use in cAMP experiments, or used to prepare membranes for radioligand binding assays. • cAMP Assays in Isolated Rat Adipocytes. Aliquots (100 μl, 45,000–90,000 cells) of the freshly prepared adipocyte cell suspension were placed into wells of 24-well cell culture plates containing 0.4 ml of KRH solution containing fatty acid-free BSA (1%), ascorbic acid (1 mM), rolipram (10 μM), cilostamide (1 μM), adenosine deaminase (2 U/ml), and appropriate A1 adenosine receptor agonist(s). An aliquot of 0.5 ml of KRH solution containing 60 nM isoproterenol was added to each well, and incubations proceeded for 4 min in an orbital shaker bath maintained at 37° C. Assays were terminated by the addition of 200 μl of 300 mM HCl to each well to lyse the cells. The concentration of cAMP in the cell lysate was determined using colorimetric direct cAMP kits (Assay Designs, Inc., Ann Arbor, Mich.). Adipocyte Membrane Preparation and Competition Binding • Assays. Freshly isolated adipocytes were added to a chilled solution containing sucrose (0.25 M), EDTA (1 mM), and Tris-HCl (10 mM, pH 7.4) and homogenized with 10 strokes using a motordriven tissue grinder. The homogenate was cooled on ice and the fat layer was discarded. The homogenate was then centrifuged at 500 g for 10 min at 4° C. The supernatant under the fat layer was removed, resuspended in fresh buffer, and homogenized a second time with six strokes using the tissue grinder. Cell membranes were collected by centrifugation of the homogenate at 15,000 g for 15 min. The final membrane pellet was resuspended in a solution containing sucrose (0.25 M), phenylmethylsulfonyl fluoride (0.1 mM), leupeptin (5 μg/ml), aprotinin ([…]), adenosine deaminase (2 U/ml), and Tris-HCl (10 mM) buffer, pH 7.4. The membrane suspension was frozen and stored in liquid nitrogen. For competition binding assays, membrane suspensions were thawed and incubated for 2 hours at room temperature in Tris-HCl (50 mM) buffer containing ADA (1 U/ml), guanosine 5-(imido)triphosphate ([…]), and [3H]CPX (1–3nM) and progressively higher concentrations of the competing agent. At the end of incubation, free radioligand was separated from membrane-bound radioligand by filtration through GF/C glass fiber filters (Whatman, Maidstone, UK) using a tissue harvester (Brandel, Inc., Gaithersburg, Md.). Radioactivity was quantified by liquid scintillation counting. […]

The next data set has as its system seizures induced by DMCM. Conditions: experimental models of epilepsy; cited from earlier work.
A further data set concerns the target A1 receptor (Cavia porcellus, UniProt P47745). Conditions: chronic administration for 7 days, guinea pigs; cited from earlier work.

A1 receptor, sequence (P47745 whole entry): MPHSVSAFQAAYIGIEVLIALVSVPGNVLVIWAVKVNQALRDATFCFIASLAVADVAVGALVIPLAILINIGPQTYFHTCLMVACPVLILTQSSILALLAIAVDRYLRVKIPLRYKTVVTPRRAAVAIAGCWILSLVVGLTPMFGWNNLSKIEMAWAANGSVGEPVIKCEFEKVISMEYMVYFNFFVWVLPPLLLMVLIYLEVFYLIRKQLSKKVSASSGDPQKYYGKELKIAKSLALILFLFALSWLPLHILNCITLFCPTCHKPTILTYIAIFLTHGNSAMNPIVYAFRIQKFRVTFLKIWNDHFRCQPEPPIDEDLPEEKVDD

`O[C@@H]1[C@H](O)[C@@H](C#Cc2ccccc2F)O[C@H]1n1cnc2c(NC3CCCC3)ncnc21` [(4S,2R,3R,5R)-2-[6-(cyclopentylamino)purin-9-yl]-5-{2-[2-fluorophenyl]-ethynyl}oxolane-3,4-diol]: the “effect on heart rate” value in the data set on awake rats [1] is on record as “no effect on heart rate was observed”. Also, in the data set on awake rats [2] (1 mg/Kg), the “initial reduction of non-esterified free fatty acid (NEFA)” value is reported as 40%, the “time in which plasma levels of NEFA returned to normal” value was determined as 2 h and the “time the NEFA reduction was maintained” value worked out at 1 h. In the data set on awake rats [2] (2.5 mg/Kg), the “initial reduction of non-esterified free fatty acid (NEFA)” value worked out at 60%, the “time in which plasma levels of NEFA returned to normal” value was 4 h and the “time the NEFA reduction was maintained” value is 1.5 h.

Take `Cc1ccccc1CNc1ncnc2c1ncn2[C@@H]1O[C@H](CO)[C@@H](O)[C@H]1O` [metrifudil]: in the data set on seizures induced by DMCM, the “anticonvulsant activity against seizures induced by DMCM” value was “potent anticonvulsant”.

Regarding `C[C@H](Cc1ccccc1)Nc1ncnc2c1ncn2[C@@H]1O[C@H](CO)[C@@H](O)[C@H]1O` [R-PIA, R-N6-phenylisopropyladenosine], the “desensitization in terms of the dromotropic response” value on A1 receptor was “desensitization of the A1 receptor”.
